# Laboratory results: the supplement of paper PMC10307832
# Tests used:
# Assay in all cases: relative viability (nuclei count vs DMSO), 5 days (fraction); higher = more cells survive
# Omipalisib = compound: COc1ncc(-c2ccc3nccc(-c4ccnnc4)c3c2)cc1NS(=O)(=O)c1ccc(F)cc1F [Omipalisib]
# Summary of the method: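 Viability was defined as treated-well nuclei divided by vehicle-well nuclei, with the median taken over replicate plates. Cells from lung cancer lines sat overnight at 37 °C in 1536-well plates, received five √10-spaced library-drug doses by pinning on vehicle-anchored plates, and grew 5 days without medium change before one-step fixation, permeabilisation and Hoechst staining, 4× imaging and MetaXpress nuclear counts. Only plates with control CV under 25% and at least one doubling were kept.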
# Omipalisib + Linsitinib = compound: COc1ncc(-c2ccc3nccc(-c4ccnnc4)c3c2)cc1NS(=O)(=O)c1ccc(F)cc1F [Omipalisib] + C[C@]1(O)C[C@@H](c2nc(-c3ccc4ccc(-c5ccccc5)nc4c3)c3c(N)nccn32)C1 [Linsitinib] (partner 1 µM)
# Summary of the method: (§1)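 Dosing by pin tool came one day after lung cancer cell lines were seeded in 1536-well plates, using either one drug or a fixed anchor-drug dose plus five library-drug doses (not always all listed) in √10 steps. After 5 days, nuclei were counted on 4× images. Relative viability is treated-well nuclei count divided by vehicle-well nuclei count, and values are medians of duplicate plates.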
# Omipalisib + Decitabine = compound: COc1ncc(-c2ccc3nccc(-c4ccnnc4)c3c2)cc1NS(=O)(=O)c1ccc(F)cc1F [Omipalisib] + Nc1ncn([C@H]2C[C@H](O)[C@@H](CO)O2)c(=O)n1 [Decitabine] (partner 2 µM)
# Summary of the method: as §1
Cell Line,relative viability (Omipalisib; 0.0003 µM),relative viability (Omipalisib; 0.003 µM),relative viability (Omipalisib; 0.03 µM),relative viability (Omipalisib + Linsitinib; first compound 0.0003 µM),relative viability (Omipalisib + Linsitinib; first compound 0.003 µM),relative viability (Omipalisib + Linsitinib; first compound 0.03 µM),relative viability (Omipalisib + Decitabine; first compound 0.0003 µM),relative viability (Omipalisib + Decitabine; first compound 0.003 µM),relative viability (Omipalisib + Decitabine; first compound 0.03 µM)
SW 1573,0.731,0.713,0.492,0.777,0.476,0.465,0.306,0.241,0.239
NCI-H596,0.944,0.673,0.421,0.817,0.517,0.355,0.846,0.75,0.506
NCI-H2342,0.741,0.63,0.534,–,–,–,0.589,0.479,0.408
NCI-H358,0.893,0.561,0.388,0.639,0.457,0.289,0.199,0.174,0.141
ABC-1,1.02,0.705,0.538,0.771,0.572,0.586,1.05,0.99,0.742
EMC-BAC-2,0.848,0.613,0.549,0.797,0.693,0.438,0.664,0.663,0.654
NCI-H1666,1.01,0.818,0.651,0.689,0.719,0.41,0.843,0.614,0.567
NCI-H661,1,0.923,0.82,0.389,0.439,0.234,0.522,0.453,0.422
NCI-H2126,0.972,0.687,0.495,0.712,0.644,0.422,0.548,0.414,0.304
NCI-H1651,0.928,0.851,0.595,0.931,0.737,0.417,0.528,0.476,0.446
H3255,0.93,0.85,0.51,0.999,0.888,0.485,0.534,0.471,0.305
HOP-62,1.03,1.06,0.753,1.11,0.779,0.559,0.211,0.264,0.199
NCI-H441,0.832,0.574,0.427,0.569,0.382,0.394,0.24,0.206,0.227
SK-MES-1,0.927,0.607,0.452,1.02,0.785,0.69,0.363,0.262,0.241
EPLC-272H,0.958,0.661,0.387,1.38,0.893,0.248,0.346,0.269,0.172
NCI-H1915,1.04,0.996,0.952,1.08,1.12,1.01,0.248,0.249,0.227
NCI-H520,0.787,0.588,0.252,0.9,0.672,0.275,0.51,0.369,0.233
NCI-H2228,0.858,0.682,0.352,0.724,0.282,0.211,–,–,–

Cell Line,relative viability (Omipalisib; 0.0003 µM),relative viability (Omipalisib; 0.003 µM),relative viability (Omipalisib; 0.03 µM),relative viability (Omipalisib + Linsitinib; first compound 0.0003 µM),relative viability (Omipalisib + Linsitinib; first compound 0.003 µM),relative viability (Omipalisib + Linsitinib; first compound 0.03 µM),relative viability (Omipalisib + Decitabine; first compound 0.0003 µM),relative viability (Omipalisib + Decitabine; first compound 0.003 µM),relative viability (Omipalisib + Decitabine; first compound 0.03 µM)
LCLC-103H,1.04,0.745,0.617,1.17,1.08,0.428,0.69,0.639,0.4
201T,0.986,1.03,0.729,1.03,0.916,0.769,0.816,0.809,0.53
NCI-H1792,0.91,0.495,0.213,0.417,0.441,0.164,0.428,0.37,0.101
LXF-289,1.04,1.08,0.943,0.961,1,0.793,0.365,0.371,0.281
LCLC-97TM1,1.03,0.586,0.203,0.172,0.135,0.134,0.216,0.168,0.161
NCI-H1395,0.901,0.706,0.649,1.03,0.905,0.592,0.661,0.625,0.567
CAL-12T,1.12,1.1,0.594,0.75,0.822,0.513,–,–,–
NCI-H1975,0.911,0.672,0.374,0.857,0.614,0.206,0.398,0.296,0.178
EKVX,0.985,0.79,0.44,1.06,0.76,0.456,0.305,0.289,0.238
NCI-H1437,1,0.837,0.398,0.952,0.824,0.404,0.519,0.564,0.398
RERF-LC-KJ,0.942,0.733,0.571,0.883,0.716,0.697,0.637,0.502,0.434
NCI-H1755,1.01,0.901,0.737,1,0.942,0.516,0.714,0.555,0.485
NCI-H1793,0.74,0.514,0.317,0.648,0.416,0.288,0.398,0.282,0.214
LOU-NH91,0.999,0.784,0.65,0.876,0.717,0.512,0.857,0.747,0.665
NCI-H1944,0.856,0.646,0.371,1.21,0.854,0.481,0.384,0.356,0.239
NCI-H1993,0.806,0.632,0.623,0.697,0.765,0.589,0.6,0.483,0.447
HCC-15,0.973,0.691,0.7,0.929,0.77,0.799,0.591,0.394,0.372
